Reference: patent US20110251428A1 (priority 2006, published 2011)
“Also recorded” adds a separate entry of the source.

Columns and labels:
[1] = tested on: yeast [PSI^+] prion; assay type: cell-based
[2] = tested on: [URE3] prion; assay type: cell-based
[3] = tested on: yeast [PSI^+] prion; conditions: cited from earlier work

Structure (SMILES)	activity against yeast [PSI+] prion (halo of red colonies) [1]	activity in the yeast-based method (earlier study) [3]	other results
CC(=O)O.N=C(N)N/N=C/c1c(Cl)cccc1Cl [Guanabenz acetate]	strongly active; also recorded: very active	–	activity against [URE3] prion [2]: also active; also recorded: also very active
CCN(CC)CCCC(C)Nc1c2ccc(Cl)cc2nc2ccc(OC)cc12 (stereo not drawn) [quinacrine]	–	active	–
Clc1cccc(Cl)c1N=C1NCCN1 [Clonidine]	–	–	anti-prion activity (data not shown) [1]: did not exhibit any anti-prion activity
N=C(N)N/N=C/c1c(Cl)ccc(Cl)c1Cl [PSI210]	strongest activity; also recorded: more potent than Guanabenz itself	–	–
CN(C)CCCN1c2ccccc2Sc2ccc(Cl)cc21 [chlorpromazine]	–	active	–
